In publication PMC9686213, “Peptide Carbocycles: From −SS– to −CC– via a Late-Stage “Snip-and-Stitch”” (ACS Central Science, 2022):
Like-named read-outs stand apart in the source and are kept apart here.

Experiments:
[1] = ethylene glycol/heptane, cited from earlier work
[2] = Stability to reductive cleavage / disulfide exchange by glutathione (GSH); type: in vitro ADME; conditions: pH 7.4, 37 °C
From the text: We next examined the effect of our linkers on the biopharmaceutical properties of setmelanotide. The capacity of setmelanotide (SMT) to regulate appetite depends on its ability to penetrate the blood–brain barrier and to activate melanocortin-4 (MC4) receptors in the brain.[79],[80] Replacing the −SS– bond of SMT with more lipophilic −CC– linkages could improve the CNS permeability of SMT and could also enhance its proteolytic stability. […] For aqueous solubility, we measured solvation in deionized water (pH 6 at 25 °C). […] To assess cell permeability, we measured the partition coefficient Peh of our carbocyclic peptides in a mixture of ethylene glycol and heptane.[81]−[84] […] Thus, log Peh values are a good approximation of in vivo permeabilities. […]. Thus, many of our carbocyclic analogs should have improved (up to 2.6-fold) blood–brain penetrance in vivo. Finally, we determined the stability of our carbocyclic peptides to aqueous hydrolysis and to reductive cleavage by glutathione (GSH), an approximate measure of their plasma stability.[85] GSH in the cytoplasm can reduce disulfide bonds to dicysteine peptides and can also cleave disulfide bonds through a disulfide exchange reaction.[18]−[21] […] The products were analyzed by LC-MS. […]

[3] = Hydrolytic stability at pH 8.5, 50 °C, LC-MS analysis; type: physicochemical; conditions: 16 h
From the text: (§1) We next examined the effect of our linkers on the biopharmaceutical properties of setmelanotide. The capacity of setmelanotide (SMT) to regulate appetite depends on its ability to penetrate the blood–brain barrier and to activate melanocortin-4 (MC4) receptors in the brain.[79],[80] […] To assess cell permeability, we measured the partition coefficient Peh of our carbocyclic peptides in a mixture of ethylene glycol and heptane.[81]−[84] […] Thus, log Peh values are a good approximation of in vivo permeabilities. […] Finally, we determined the stability of our carbocyclic peptides to aqueous hydrolysis and to reductive cleavage by glutathione (GSH), an approximate measure of their plasma stability.[85] GSH in the cytoplasm can reduce disulfide bonds to dicysteine peptides and can also cleave disulfide bonds through a disulfide exchange reaction.[18]−[21] […] All measurements were compared to setmelanotide (SMT).
(§2) (1 picture or pasted object on this page, not shown here)

[4] = Partition coefficient Peh in ethylene glycol/heptane (permeability, log Peh); type: physicochemical; conditions: UPLC peak area at 280 nm
From the text: as §1, §2

[5] = common small molecule CNS drugs

In the case of `c1cc(CN2CCCCC2)cc(OCCCNc2nc3ccccc3s2)c1` [zolantidine], the “log Peh” value [1, 5] is listed as −1.47.
For `Cc1cc(=O)n(-c2ccccc2)n1C` [antipyrine], the “log Peh” value [1, 5] is listed as −2.28.
In the case of setmelanotide [SMT], the “mixed disulfide formed (disulfide exchange)” value ([2]; 1 equiv. GSH, after 24 h) was 2%, the “mixed disulfide formed (disulfide exchange)” value ([2]; 10 equiv. GSH) was 17% and the “hydrolysis outcome (in words)” value [3] was “loss of a single sulfur atom”. For the same compound, the “log Peh” value [4] was −1.16.
In the case of `Clc1cccc(Cl)c1N=C1NCCN1` [clonidine], the “log Peh” value [1, 5] is listed as −1.80.
In the case of `NC(=O)c1ccccc1` [benzamide], the “log Peh” value ([1]; reference solutes quoted 'for reference') is listed as −3.69.
